Experimental data reported in US11555212B2, “Process for the production of sulfated phenolic compounds using modified Escerichia coli” (CysBio ApS, priority 2016, dated 2023).

Legend:
[1] = target: T1, SULT1A1 human (Homo sapiens, UniProt P50225, V223M); assay: pHCA and zosteric acid in culture media of E. coli expressing an aryl sulfotransferase in combination with a tyrosine ammonia lyase; format: cell-based; conditions: E. coli BL21(DE3)pLysS expressing SULT1A1 Homo sapiens and RmXAL, M9 glucose, 0.1 mM IPTG, no substrate added
T1 construct: expressed in transfected cells; host or cells: E. coli BL21(DE3)pLysS
T1 sequence (P50225 whole entry V223M): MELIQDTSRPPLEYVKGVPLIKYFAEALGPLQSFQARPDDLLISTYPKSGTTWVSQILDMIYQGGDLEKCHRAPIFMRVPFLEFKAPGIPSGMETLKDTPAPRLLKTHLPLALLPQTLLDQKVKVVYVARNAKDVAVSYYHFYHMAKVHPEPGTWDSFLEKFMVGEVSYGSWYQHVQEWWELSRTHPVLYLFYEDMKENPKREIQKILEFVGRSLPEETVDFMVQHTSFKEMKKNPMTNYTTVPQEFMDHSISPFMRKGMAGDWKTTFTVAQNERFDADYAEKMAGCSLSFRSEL
Experimental: (§1) The concentration of p-courmaric acid (pHCA) and zosteric acid in the supernatant was quantified by high performance liquid chromatography (HPLC) and compared to chemical standards. HPLC was done on a Thermo setup using a HS-F5 column and mobile phases: 5 mM ammonium formate pH 4.0 (A) and acetonitrile (B) at 1.5 mL min-1, using a gradient elution starting at 5% B. From 0.5 min after injection to 7 min, the fraction of B increased linearly from 5% to 60%, and between 9.5 min and 9.6 the fraction of B decreased back to 5%, and remaining there until 12 min. pHCA and zosteric acid were quantified by measuring absorbance at 277 nm.
The enzyme RmXAL from Rhodotorula mucilaginosa/Rhodotorula rubra (SEQ ID NO: 46) has tyrosine ammonia lyase activity, thus catalyzing the non-oxidative deamination of the amino acid tyrosine, releasing p-coumaric acid (pHCA) and ammonia. The gene encoding RmXAL was codon optimized using standard algorithms for expression in E. coli available by GeneArt (Life Technologies) and amplified by PCR using the primers shown in Table 5 and inserted into the pCDFDuet-1 vector (Novagen/Life Technologies), which had been digested by the restriction enzymes NdeI and BgIII, using Gibson reaction (New England Biolabs). […]

[2] = target: T2, RsTAL (Cereibacter sphaeroides, UniProt Q3IWB0); assay: Titers of pHCA and zosteric acid, E. coli co-expressing tyrosine ammonia-lyase and SULT1A1 rat; format: cell-based, Rhodobacter sphaeroides; conditions: E. coli BL21(DE3) with SULT1A1 rat and RsTAL; M9, 0.2% glucose, 2 mM tyrosine, 1 mM IPTG; overnight 37° C.; supernatant
T2 construct: were optimized for E. coli and synthesized by GeneArt, amplified by PCR; expressed in transfected cells; host or cells: E. coli BL21(DE3), plasmid pCBJ215
T2 sequence (Q3IWB0 whole entry Q21E/A24S/I74V/S113A/S143M/R238G/D285G/G287S): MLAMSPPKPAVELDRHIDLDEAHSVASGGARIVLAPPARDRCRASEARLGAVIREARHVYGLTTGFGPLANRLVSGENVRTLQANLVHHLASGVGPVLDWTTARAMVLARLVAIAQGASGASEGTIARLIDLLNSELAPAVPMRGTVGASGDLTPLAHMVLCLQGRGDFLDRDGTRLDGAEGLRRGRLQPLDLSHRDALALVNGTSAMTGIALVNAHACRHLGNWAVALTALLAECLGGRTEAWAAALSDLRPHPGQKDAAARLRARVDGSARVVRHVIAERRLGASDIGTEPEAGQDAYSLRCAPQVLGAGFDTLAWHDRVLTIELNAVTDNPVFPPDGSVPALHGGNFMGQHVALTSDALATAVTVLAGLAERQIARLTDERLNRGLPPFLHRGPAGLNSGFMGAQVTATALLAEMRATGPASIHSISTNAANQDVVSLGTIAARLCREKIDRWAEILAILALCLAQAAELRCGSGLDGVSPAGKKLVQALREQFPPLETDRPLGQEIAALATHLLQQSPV
Experimental: as §1
The genes encoding the tyrosine ammonia-lyases RcTAL (from Rhodobacter capsulatus; SEQ ID NO: 50), RsTAL (from Rhodobacter sphaeroides; SEQ ID NO: 43) and FjTAL (from Flavobacterium johnsoniae; SEQ ID NO: 40) were cloned into expression vectors as follows. […]
Strains harboring recombinant plasmids were pre-cultured in 2×YT liquid medium with 100 μg mL^−1 ampicillin and 50 μg mL^−1 spectinomycin and incubated at 37° C. and 250 rpm overnight. […] The supernatants were then collected by centrifugation twice and applied to HPLC analysis as described in example 1, and the titers of p-coumaric acid (pHCA) and zosteric acid (ZA) were quantified using chemical standards and are presented in the table below.

[3] = target: T3, SULT1A1 Rattus norvegicus (Rattus norvegicus, UniProt P17988); assay: Percent conversion of substrates by E. coli expressing a sulfotransferase; format: cell-based; conditions: M9, pHCA 100 μM, resveratrol 95 μM or kaempferol 87 μM, overnight 37° C.
T3 construct: 1, 3, 4, 5, and 6 were cloned amplified from liver tissue cDNA; expressed in transfected cells
T3 sequence (P17988 whole entry): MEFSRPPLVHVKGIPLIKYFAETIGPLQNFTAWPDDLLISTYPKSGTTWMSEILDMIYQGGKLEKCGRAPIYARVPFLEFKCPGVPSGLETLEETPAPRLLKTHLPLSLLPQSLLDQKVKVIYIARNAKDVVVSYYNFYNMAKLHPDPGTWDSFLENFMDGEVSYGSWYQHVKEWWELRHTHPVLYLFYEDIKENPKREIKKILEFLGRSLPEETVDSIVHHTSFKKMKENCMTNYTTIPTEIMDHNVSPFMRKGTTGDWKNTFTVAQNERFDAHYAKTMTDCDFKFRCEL
Experimental: as §1
(§2) Different sulfotransferases were examined for their substrate specificities against three substrates. We tested the sulfotransferases mentioned in example 1, as well as additional ones. The genes encoding these were cloned as described in example 1 using the primers shown in the table below from cDNA libraries of the respective organisms, except for the SULT1A1 from rat (Rattus norvegicus) codon-optimized for E. coli (described above). The resulting vectors were transformed into BL21(DE3)pLysS.
(§3) The resulting strains were grown in M9 medium containing either 100 μM pHCA, 95 μM resveratrol or 87 μM kaempferol. The cultures were grown overnight at 37° C., 300 rpm. The following day the supernatants were isolated and examined by HPLC as described in example 1.

[4] = test system: SULT1C1 Gallus gallus domesticus; assay: as above; format: cell-based; conditions: E. coli BL21(DE3)pLysS expressing SULT1C1 Gallus gallus domesticus; M9; pHCA 100 μM, resveratrol 95 μM or kaempferol 87 μM; overnight 37° C.
Experimental: as §1, §2, §3

[5] = test system: SULT1A1 Sus scrofa domesticus; assay: as above; format: cell-based; conditions: E. coli BL21(DE3)pLysS expressing SULT1A1 Sus scrofa domesticus; M9; pHCA 100 μM, resveratrol 95 μM or kaempferol 87 μM; overnight 37° C.
Experimental: as §1, §2, §3

[6] = test system: SULT1A1 Equus caballus; assay: as above; format: cell-based; conditions: E. coli BL21(DE3)pLysS expressing SULT1A1 Equus caballus; M9; pHCA 100 μM, resveratrol 95 μM or kaempferol 87 μM; overnight 37° C.
Experimental: as §1, §2, §3

SMILES | Zosteric acid formed [1] [mM] | Titer of zosteric acid (ZA) [2] [µM] | pHCA [1] [mM] | Percent conversion of the substrate ([3]; E. coli BL21(DE3)pLysS expressing SULT1A1 Rattus norvegicus (Codon-optimized for E. coli)) [%] | Percent conversion of the substrate ([3]; E. coli BL21(DE3)pLysS expressing SULT1A1 Rattus norvegicus) [%] | Percent conversion of the substrate [4] [%] | Percent conversion of the substrate [5] [%] | Percent conversion of the substrate [6] [%] | Titer of p-coumaric acid (pHCA) [2] [μM]
O=C(O)/C=C/c1ccc(OS(=O)(=O)O)cc1 [Zosteric acid, zosteric acid] | 0.01 | <1 | – | – | – | – | – | – | –
O=C(O)/C=C/c1ccc(O)cc1 [pHCA, p-coumaric acid] | – | – | 0.02 | 73 | 93 | 26 | 8 | 21 | 78
